Measured values published in patent publication US7803801B2, “Aminopyridine compounds having Syk inhibitory activity” (Japan Tobacco, Inc., priority 2005, dated 2010).
Structures can show the parent of a compound that is named as a salt. Where two headings read alike, the source gives them in different places.

Experiments:
[1] = tested on: cultured human mast cells; experiment: Degranulation inhibition test using cultured human mast cells (IgE cross-linking, β-Hexosaminidase release); type: cell-based; conditions: Mast cell, cultured human mast cells, read-out: human degranulation ave. IC50
Summary of the method: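 CD34+ cord-blood cells cultured ≥8 weeks with SCF/IL-6/IL-3; FcεRI primed 5 days with rhIL-4 (1 ng/mL) and hIgE (0.5 μg/mL). Compound (0.1% DMSO) preincubated 10 min at 37 °C, then anti-IgE (final 10 μg/mL) 30 min; released β-hexosaminidase read at 405 nm versus total lysate, IC50 (M).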

[2] = biological target: GST-Syk Full Protein (human) (Homo sapiens, UniProt P43405); experiment: Syk kinase inhibition test (HTRF method); type: biochemical
Summary of the method: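 Human GST-Syk full-length (6.4 nM) phosphorylated biotin-EDPDYEWPSA-NH2 (250 nM) with 100 μM ATP in HEPES pH 7.0/MgCl2 buffer, 2% DMSO, 30 min at room temperature. EDTA stop, then HTRF detection (streptavidin-XL665, Eu anti-phosphotyrosine) after 1 h; 665/620 ratio read.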

[3] = Tables 1-x, compounds A, read-out: sykHTRF ave IC50
[4] = anti-hIgE stimulation, β-Hexosaminidase index, average
[5] = HTRF, 100 μM ATP, 30 min room temperature, average, read-out: sykHTRF ave IC50
[6] = Tables 2-x, thiophene compounds B
[7] = Tables 2-x, thiophene compounds B, read-out: sykHTRK ave IC50

Row | Structure (SMILES) | IC50 ([1]; Tables 1-x, compounds A) | IC50 [2, 3] | IC50 [1, 4] | IC50 [2, 5] | further results
1 | Cc1ccnc(Nc2cccc(-c3cnc(N4CCC(C)(CC(=O)O)CC4)s3)n2)c1 [Compound A-613, (4-methyl-1-{5-[6-(4-methylpyridin-2-ylamino)pyridin-2-yl]thiazol-2-yl}piperidin-4-yl)acetic acid dihydrochloride] | 0.1 to 1 µM | < 0.1 µM |  |  | 
2 | Cc1ccnc(Nc2cccc(-c3cnc(CN4CCOCC4)s3)n2)c1 [Compound A-193] |  |  | 0.1 to 1 µM | 0.1 to 1 µM | 
3 | CNC(=O)CN1C(=O)OC[C@H]1c1ncc(-c2cccc(Nc3cc(C)ccn3)n2)s1 [Compound A-402] | > 1 µM | > 1 µM |  |  | 
4 | CCc1ccc(-c2cccc(Nc3cc(C)ccn3)n2)s1 [Compound B-91] |  |  |  |  | IC50 [1, 6]: > 1 µM; IC50 [2, 7]: 0.1 to 1 µM
5 | CC(=O)c1ccc(-c2cccc(Nc3ccc(C)cn3)n2)s1 [Compound B-76] |  |  |  |  | IC50 [1, 6]: > 1 µM; IC50 [2, 7]: > 1 µM
6 | CC(=O)N[C@@H](CO)c1ncc(-c2cccc(Nc3cc(C)ccn3)n2)s1 [Compound A-59] |  |  | 0.1 to 1 µM | 0.1 to 1 µM | 
7 | CC(=O)N[C@H](c1ccc(OCc2ccccc2)cc1)c1ncc(-c2cccc(Nc3cc(C)ccn3)n2)s1 [Compound A-160] |  |  | > 1 µM | 0.1 to 1 µM | 
8 | Cc1ccnc(Nc2cccc(-c3cnc(C4CCCC(C(=O)N5CCC(O)CC5)C4)s3)n2)c1 (centres unmarked) [Compound A-272] |  |  | 0.1 to 1 µM | 0.1 to 1 µM | 
9 | O=C(O)[C@@H]1CCCN(c2ncc(-c3cccc(Nc4cc(Cl)ccn4)n3)s2)C1 [Compound A-546, (R)-1-{5-[6-(4-chloropyridin-2-ylamino)pyridin-2-yl]thiazol-2-yl}piperidine-3-carboxylic acid] | 0.1 to 1 µM | < 0.1 µM |  |  | 
10 | Cc1ccnc(Nc2cccc(-c3cnc([C@H]4CC[C@H](C(=O)N5CCCC(O)C5)CC4)s3)n2)c1 (some centres unmarked) [Compound A-238] |  |  | 0.1 to 1 µM | 0.1 to 1 µM | 
11 | Cc1ccnc(Nc2cccc(-c3cc(C)c(C(=O)NC(C)(C)CO)s3)n2)c1 [Compound B-88] |  |  |  |  | IC50 [1, 6]: 0.1 to 1 µM; IC50 [2, 7]: 0.1 to 1 µM
12 | CC(=O)N[C@H](c1ncc(-c2cccc(Nc3cc(C)ccn3)n2)s1)C(C)C [Compound A-38] |  |  | 0.1 to 1 µM | 0.1 to 1 µM | 
13 | COC(=O)[C@H]1CC[C@H](c2ncc(-c3cccc(Nc4cc5ccccc5cn4)n3)s2)CC1 [Compound A-213] |  |  | 0.1 to 1 µM | > 1 µM | 
14 | O=C1CC[C@@H](c2ncc(-c3cccc(Nc4cc(CCO)ccn4)n3)s2)N1 [Compound A-330, (S)-5-(5-{6-[4-(2-hydroxyethyl)pyridin-2-ylamino]pyridin-2-yl}thiazol-2-yl)pyrrolidin-2-one] |  |  | 0.1 to 1 µM | < 0.1 µM | 
15 | CC(=O)c1ccc(-c2cccc(Nc3cc(C(=O)O)ccn3)n2)s1 [Compound B-58] |  |  |  |  | IC50 [1, 6]: > 1 µM; IC50 [2, 7]: > 1 µM
16 | CC(=O)Oc1ccc(C(=O)N2CCC(c3ncc(-c4cccc(Nc5cc(C)ccn5)n4)s3)CC2)cc1 [Compound A-377] | 0.1 to 1 µM | 0.1 to 1 µM |  |  | 
17 | Cc1ccnc(Nc2cccc(-c3cnc(N4CCN(CC(N)=O)C(=O)C4)s3)n2)c1 [Compound A-465, 2-(4-{5-[6-(4-methylpyridin-2-ylamino)pyridin-2-yl]thiazol-2-yl}-2-oxopiperazin-1-yl)acetamide] | 0.1 to 1 µM | < 0.1 µM |  |  | 
18 | Cc1ccnc(Nc2cccc(-c3cnc(N(C)Cc4ccc(C(=O)O)cc4Cl)s3)n2)c1 [Compound A-604, 3-chloro-4-[(N-methyl-N-{5-[6-(4-methylpyridin-2-ylamino)pyridin-2-yl]thiazol-2-yl}amino)methyl]benzoic acid dihydrochloride] | 0.1 to 1 µM | < 0.1 µM |  |  | 
19 | CC(=O)Nc1cc(C)c(-c2cccc(Nc3cc(C)ccn3)n2)s1 [Compound B-8] |  |  |  |  | IC50 [1, 6]: > 1 µM; IC50 [2, 7]: 0.1 to 1 µM
20 | Cc1ccnc(Nc2cccc(-c3cnc([C@H]4CC[C@H](C(=O)N5CC[C@H](O)[C@H](O)C5)CC4)s3)n2)c1 [Compound A-239, ((3R,4S)-3,4-dihydroxypiperidin-1-yl)-(trans-4-{5-[6-(4-methylpyridin-2-ylamino)pyridin-2-yl]thiazol-2-yl}cyclohexyl)methanone] |  |  | 0.1 to 1 µM | < 0.1 µM | 
21 | Cc1ccnc(Nc2cccc(-c3cnc(N4CCC(CCC(=O)O)CC4)s3)n2)c1 [Compound A-17, 3-(1-{5-[6-(4-methyl-pyridin-2-ylamino)pyridin-2-yl]thiazol-2-yl}piperidin-4-yl)propionic acid] |  |  | 0.1 to 1 µM | < 0.1 µM | 
22 | Cc1ccnc(Nc2cccc(-c3cnc(N4C[C@@H](O)[C@@H](O)C4)s3)n2)c1 [Compound A-423, (3R,4S)-1-{5-[6-(4-methylpyridin-2-ylamino)pyridin-2-yl]thiazol-2-yl}pyrrolidine-3,4-diol] | 0.1 to 1 µM | < 0.1 µM |  |  | 
23 | Cc1ccnc(Nc2cccc(-c3cnc(N4CC[C@@H](NS(C)(=O)=O)C4)s3)n2)c1 [Compound A-489, N—((R)-1-{5-[6-(4-methylpyridin-2-ylamino)pyridin-2-yl]thiazol-2-yl}pyrrolidin-3-yl)methanesulfonamide] | 0.1 to 1 µM | < 0.1 µM |  |  | 
24 | CNC(=O)CN(C)C(=O)C1CCN(c2ncc(-c3cccc(Nc4cc(C)ccn4)n3)s2)CC1 [Compound A-469, N-methyl-N-methylcarbamoylmethyl-1-{5-[6-(4-methylpyridin-2-ylamino)pyridin-2-yl]thiazol-2-yl}piperidine-4-carboxamide] | 0.1 to 1 µM | < 0.1 µM |  |  | 
25 | Cc1ccnc(Nc2cccc(-c3ccc(Cl)s3)n2)c1 [Compound B-16] |  |  |  |  | IC50 [1, 6]: > 1 µM; IC50 [2, 7]: 0.1 to 1 µM
26 | CN(Cc1ccc(C(=O)O)cc1)c1ncc(-c2cccc(Nc3cc(C4(C)OCCO4)ccn3)n2)s1 [Compound A-596, 4-{[N-methyl-N-(5-{6-[4-(2-methyl-[1,3]dioxolan-2-yl)pyridin-2-ylamino]pyridin-2-yl}thiazol-2-yl)amino]methyl}benzoic acid] | 0.1 to 1 µM | < 0.1 µM |  |  | 
27 | CNCc1ccc(-c2cccc(Nc3cc(C)ccn3)n2)s1 [Compound B-25] |  |  |  |  | IC50 [1, 6]: > 1 µM; IC50 [2, 7]: 0.1 to 1 µM
28 | Cc1ccnc(Nc2cccc(-c3cnc(CNC[C@H]4CC[C@H](CO)CC4)s3)n2)c1 [Compound A-208] |  |  | > 1 µM | 0.1 to 1 µM | 

Further lines, with some results ahead:

Row | IC50 ([1]; Tables 1-x, compounds A) | IC50 [2, 3] | IC50 [1, 4] | IC50 [2, 5] | Structure (SMILES) | further results
29 |  |  | > 1 µM | 0.1 to 1 µM | CC(=O)N[C@@H](Cc1ccccc1)c1ncc(-c2cccc(Nc3cc(C)ccn3)n2)s1 [Compound A-41] | 
30 |  |  | 0.1 to 1 µM | < 0.1 µM | Cc1ccnc(Nc2cccc(-c3cnc(CN4CCC(N)CC4)s3)n2)c1 [Compound A-197, 1-{5-[6-(4-methylpyridin-2-ylamino)pyridin-2-yl]thiazol-2-ylmethyl}piperidin-4-ylamine] | 
31 |  |  | 0.1 to 1 µM | 0.1 to 1 µM | Cc1ccnc(Nc2cccc(-c3cnc([C@@H](N)CCC(=O)OCc4ccccc4)s3)n2)c1 [Compound A-97] | 
32 |  |  | > 1 µM | 0.1 to 1 µM | Cc1ccnc(Nc2cccc(-c3cnc([C@H]4CC[C@H](C(=O)NC5(CO)CCCC5)CC4)s3)n2)c1 [Compound A-310] | 
33 |  |  | 0.1 to 1 µM | 0.1 to 1 µM | Cc1ccnc(Nc2cccc(-c3cnc(C)s3)n2)c1 [Compound A-231] | 
34 | > 1 µM | < 0.1 µM |  |  | Cc1ccnc(Nc2cccc(-c3cnc(N4CCN(C(=O)CCC(=O)O)CC4)s3)n2)c1 [Compound A-551, 4-(4-{5-[6-(4-methylpyridin-2-ylamino)pyridin-2-yl]thiazol-2-yl}piperazin-1-yl)-4-oxobutyric acid] | 
35 |  |  | 0.1 to 1 µM | 0.1 to 1 µM | Cc1ccnc(Nc2cccc(-c3cnc(Cc4ccc(C(=O)N5C[C@@H](O)[C@@H](O)C5)cc4)s3)n2)c1 [Compound A-244] | 
36 |  |  | 0.1 to 1 µM | < 0.1 µM | Cc1ccnc(Nc2cccc(-c3cnc([C@H]4CC[C@H](CNS(C)(=O)=O)CC4)s3)n2)c1 [Compound A-229, N-(trans-4-{5-[6-(4-methylpyridin-2-ylamino)pyridin-2-yl]thiazol-2-yl}cyclohexylmethyl)methanesulfonamide] | 
37 |  |  | > 1 µM | 0.1 to 1 µM | COC(=O)CCCc1ncc(-c2cccc(Nc3cc(C)ccn3)n2)s1 [Compound A-130] | 
38 |  |  | 0.1 to 1 µM | 0.1 to 1 µM | CC(=O)N1CCC[C@H]1c1ncc(-c2cccc(Nc3cc(C)ccn3)n2)s1 [Compound A-48] | 
39 |  |  | > 1 µM | > 1 µM | CCOC(=O)CC(=O)N[C@@H](C)c1ncc(-c2cccc(Nc3cc(C)ccn3)n2)s1 [Compound A-122] | 
40 |  |  | 0.1 to 1 µM | 0.1 to 1 µM | CC(=O)N[C@@H](C)c1ncc(-c2cccc(Nc3cc(C(C)=O)ccn3)n2)s1 [Compound A-212] | 
41 |  |  | 0.1 to 1 µM | < 0.1 µM | O=C(O)[C@H]1CC[C@H](c2ncc(-c3cccc(Nc4cc5ccccc5cn4)n3)s2)CC1 [Compound A-215, trans-4-{5-[6-(isoquinolin-3-ylamino)pyridin-2-yl]thiazol-2-yl}cyclohexanecarboxylic acid] | 
42 | 0.1 to 1 µM | < 0.1 µM |  |  | Cc1ccnc(Nc2cccc(-c3cnc(N4CCC(N(C)C(=O)CO)CC4)s3)n2)c1 [Compound A-483, 2-hydroxy-N-methyl-N-(1-{5-[6-(4-methylpyridin-2-ylamino)pyridin-2-yl]thiazol-2-yl}piperidin-4-yl)acetamide] | 
43 | 0.1 to 1 µM | < 0.1 µM |  |  | COCCN(c1ncc(-c2cccc(Nc3cc(C)ccn3)n2)s1)C1CCN(C(C)=O)CC1 [Compound A-526, 1-[4-(N-(2-methoxyethyl)-N-{5-[6-(4-methylpyridin-2-ylamino)pyridin-2-yl]thiazol-2-yl}amino)piperidin-1-yl]ethanone] | 
